Measured values published in patent publication US20150065416A1, “NOVEL DRUG COMBINATION” (FAB PHARMA SAS, priority 2013, published 2015).
Converted amounts (≈) assume the structure as drawn. Where two headings read alike, the source gives them in different places.

Assays:
A. baumannii isolates [1] = test: Checkerboard testing (compound (I)/antibacterial agent interaction, FIC index); assay type: cell-based, Acinetobacter baumannii; settings: Acinetobacter baumannii, read-out: MIC
Description: Checkerboard interaction studies were performed using 5 isolates from each of the sub-groups and time kill studies were performed using 3 isolates from each sub-group.
Checkerboards (20 isolates, 5 per sub-group) were prepared so as to contain multiple concentrations of compound (I) with different additional antibacterial agents (amikacin, gentamicin, colistin, meropenem and tobramycin) as follows:
Serial two-fold dilutions of the antimicrobial agents alone or in combination in wells of 96 well microtiter plates were inoculated with the appropriate inoculum so that each well contained approximately 4-5×10^4 CFU/ml. Plates were incubated at 35° C. for 16-20 hours. Combination concentrations were tested between 0.25×MIC and 2×MIC. Growth and sterility controls were also included in each plate.
Synergy, indifference and antagonism were calculated based upon the use of the fractional inhibitory concentration (FIC) indices as described by Pillai, Moellering & Eliopoulos (2005) whereby:
Synergism=FIC index of ≦0.5 Indifference=FIC index >1 but ≦4 Additivity >0.5 to 1 Antagonism=FIC index of >4
Checkerboard studies were carried out as described in General Procedures using twenty different A. baumannii isolates with 5 per sub-group of: susceptible, amikacin-resistant, colistin-resistant and meropenem-resistant.

A. baumannii isolates [2] = test: Individual antimicrobial susceptibility testing (MIC, broth microdilution, CLSI); assay type: cell-based, Acinetobacter baumannii; settings: for MIC50 / MIC90: Acinetobacter baumannii
Description: In the antimicrobial susceptibility testing 77 isolates of A. baumannii (from 2010) in the following sub-groups were tested: • 22 isolates generally susceptible to antimicrobial agents (“Sus”) • 20 carbapenem-resistant isolates (e.g. “MPM-R”) • 20 aminoglycoside-resistant isolates (e.g. “AMK-R”) • 15 colistin-resistant isolates. (e.g. “COL-R”)
Minimum inhibitory concentration (MIC) endpoints were determined by broth microdilution according to CLSI guidelines (CLSI, M7-A8 & M100-S22, 2012). Panels were prepared at IHMA using cation-adjusted Mueller-Hinton broth. Colonies were taken directly from a second-pass culture plate and prepared to a suspension equivalent of the 0.5 McFarland standard using normal saline.
Testing was carried out as described in the General Procedures to determine minimum inhibitory concentration (MIC) end points for compound (I), amikacin, colistin, gentamicin, meropenem and tobramycin, for 77 A. baumannii isolates. Under the “MIC (μg/ml)” heading, the first column (Range) indicates the MIC end points for the particular number (N) of isolates tested, the second column (50%) provides an estimate of the concentration that inhibits 50% (MIC50) of bacterial isolates tested, and the third column (90%) provides an estimate of the concentration that inhibits 90% of the bacterial isolates tested.

[3] = Amikacin-resistant isolates, N=20
[4] = Colistin-resistant isolates, N=15
[5] = Meropenem-resistant isolates, N=20

MIC (A. baumannii isolates [1]; A. baumannii 441142, colistin-resistant): > 1020 µg/mL
MIC (A. baumannii isolates [1]; A. baumannii 441160, colistin-resistant): > 1020 µg/mL
MIC (A. baumannii isolates [1]; A. baumannii 463996, colistin-resistant): 2 µg/mL
MIC (A. baumannii isolates [1]; A. baumannii 466936, colistin-resistant): 64 µg/mL
MIC (A. baumannii isolates [1]; A. baumannii 517303, colistin-resistant): 256 µg/mL
MIC (A. baumannii isolates [1]; A. baumannii 618649, meropenem-resistant): 1 µg/mL
MIC (A. baumannii isolates [1]; A. baumannii 625917, meropenem-resistant): 1 µg/mL
MIC (A. baumannii isolates [1]; A. baumannii 628760, susceptible): 2 µg/mL
MIC (A. baumannii isolates [1]; A. baumannii 637723, amikacin-resistant): 2 µg/mL
MIC (A. baumannii isolates [1]; A. baumannii 638115, amikacin-resistant): 2 µg/mL
MIC (A. baumannii isolates [1]; A. baumannii 650216, meropenem-resistant): 1 µg/mL
MIC (A. baumannii isolates [1]; A. baumannii 655932, amikacin-resistant): 2 µg/mL
MIC (A. baumannii isolates [1]; A. baumannii 661954, amikacin-resistant): 1 µg/mL
MIC (A. baumannii isolates [1]; A. baumannii 667848, meropenem-resistant): 1 µg/mL
MIC (A. baumannii isolates [1]; A. baumannii 668116, susceptible): 1 µg/mL
MIC (A. baumannii isolates [1]; A. baumannii 668239, amikacin-resistant): 4 µg/mL
MIC (A. baumannii isolates [1]; A. baumannii 670348, susceptible): 2 µg/mL
MIC (A. baumannii isolates [1]; A. baumannii 671050, meropenem-resistant): 4 µg/mL
MIC (A. baumannii isolates [1]; A. baumannii 672190, susceptible): 1 µg/mL
MIC (A. baumannii isolates [1]; A. baumannii 674340, susceptible): 1 µg/mL
MIC50 (A. baumannii isolates [2]; All isolates, N=77): 2 µg/mL (≈ 4.28 µM)
MIC90 (A. baumannii isolates [2]; All isolates, N=77): > 32 µg/mL
MIC50 (A. baumannii isolates [2]; [3]): > 32 µg/mL
MIC90 (A. baumannii isolates [2]; [3]): > 32 µg/mL
MIC50 (A. baumannii isolates [2]; [4]): 32 µg/mL (≈ 68.4 µM)
MIC90 (A. baumannii isolates [2]; [4]): > 32 µg/mL
MIC50 (A. baumannii isolates [2]; [5]): 4 µg/mL (≈ 8.56 µM)
MIC90 (A. baumannii isolates [2]; [5]): > 32 µg/mL
MIC50 (A. baumannii isolates [2]; Susceptible isolates, N=22): 1 µg/mL (≈ 2.14 µM)
MIC90 (A. baumannii isolates [2]; Susceptible isolates, N=22): 2 µg/mL (≈ 4.28 µM)
MIC Range (A. baumannii isolates [2]; Susceptible isolates, N=22): 0.12 to 2 µg/mL
Compound: NC[C@H]1O[C@H](O[C@H]2[C@H](O)[C@@H](O[C@H]3O[C@H](CO)[C@@H](O)[C@H](N)[C@H]3O)[C@H](N)C[C@@H]2N)[C@H](N)C[C@@H]1O [tobramycin]
